Experimental data taken from ChEMBL document CHEMBL1201862, “PubChem BioAssay data set” (2004).
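Exposure lasted 48 hours, with cells grown in 96-well plates and compounds tested at five concentrations. The concentration for 50% growth inhibition is given as GI50.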 Activity calls are given as the source filed them. Rule as the data show it: active = GI50 up to about 1.1 µM and inactive = higher.

Key:
Assay in all cases: DTP human tumour cell line panel, 48 h
EKVX = test system: EKVX
HCC 2998 = test system: HCC 2998
HCT-116 = test system: HCT-116
HCT-15 = test system: HCT-15
HL-60 = test system: HL-60
IGROV-1 = test system: IGROV-1
K562 = test system: K562
KM12 = test system: KM12
LOX IMVI = test system: LOX IMVI
MCF7 = test system: MCF7
NCI-H226 = test system: NCI-H226
NCI-H23 = test system: NCI-H23
NCI-H460 = test system: NCI-H460
OVCAR-4 = test system: OVCAR-4
OVCAR-5 = test system: OVCAR-5
OVCAR-8 = test system: OVCAR-8
SF-268 = test system: SF-268
SF-539 = test system: SF-539
SK-MEL-28 = test system: SK-MEL-28
SN12C = test system: SN12C

SMILES | GI50 (EKVX) | GI50 (HCC 2998) | GI50 (HCT-116) | GI50 (HCT-15) | GI50 (HL-60) | GI50 (IGROV-1) | GI50 (K562) | GI50 (KM12) | GI50 (LOX IMVI) | GI50 (MCF7) | GI50 (NCI-H226) | GI50 (NCI-H23) | GI50 (NCI-H460) | GI50 (OVCAR-4) | GI50 (OVCAR-5) | GI50 (OVCAR-8) | GI50 (SF-268) | GI50 (SF-539) | GI50 (SK-MEL-28) | GI50 (SN12C)
CC(C)/C(=N\[N+](C)(C)C)c1ccccc1 | > 100 µM (inactive) | > 100 µM (inactive) | > 100 µM (inactive) | > 100 µM | > 100 µM (inactive) | > 100 µM (inactive) | > 100 µM (inactive) | > 100 µM (inactive) | > 100 µM (inactive) | > 100 µM (inactive) | > 100 µM (inactive) | > 100 µM (inactive) | > 100 µM (inactive) | > 100 µM (inactive) | > 100 µM (inactive) | > 100 µM (inactive) | > 100 µM (inactive) | > 100 µM (inactive) | > 100 µM (inactive) | > 100 µM (inactive)
CN(C)Cc1cc(C(=O)/C=C/c2ccc(F)cc2)cc(CN(C)C)c1O | 35.6 µM (inactive) | > 10 µM (inactive) | 13.4 µM (inactive) | 7.78 µM | 11.5 µM (inactive) | 22.4 µM (inactive) | 17.8 µM (inactive) | 18.9 µM (inactive) | 5.92 µM (inactive) | 16.2 µM (inactive) | 38.6 µM (inactive) | 34.4 µM (inactive) | 10.5 µM (inactive) | 41.8 µM (inactive) | 57.7 µM (inactive) | 21.4 µM (inactive) | 22.8 µM (inactive) | 21.1 µM (inactive) | 29.2 µM (inactive) | 18.4 µM (inactive)
Cn1ncc2c(Nc3cccc(Cl)c3)nc(Nc3cccc(Cl)c3)nc21 | 14.5 µM (inactive) | 8.93 µM (inactive) | 11.4 µM (inactive) | 4.43 µM | 7.94 µM (inactive) | 12.2 µM (inactive) | 1.75 µM (inactive) | 4.9 µM (inactive) | 5.82 µM (inactive) | 4.68 µM (inactive) | > 48.3 µM (inactive) | 16.3 µM (inactive) |  | 11.9 µM (inactive) | 16.1 µM (inactive) | 10.9 µM (inactive) | 14.1 µM (inactive) | 19.9 µM (inactive) | 14.8 µM (inactive) | 20.7 µM (inactive)
C=C1c2nc3ccccc3n2C=C(c2ccc(Cl)cc2)N1c1ccc(OC)cc1 | 8.51 µM (inactive) | 8.85 µM (inactive) | 6.97 µM (inactive) | 10.1 µM | 76.7 µM (inactive) | 6.27 µM (inactive) | 25.6 µM (inactive) | 6.81 µM (inactive) | 36.9 µM (inactive) | 7.4 µM (inactive) | 5.46 µM (inactive) | 9.95 µM (inactive) | 6.47 µM (inactive) | 6 µM (inactive) | 17.4 µM (inactive) | 4.43 µM (inactive) |  | 5.87 µM (inactive) | 7.57 µM (inactive) | 11.9 µM (inactive)
O=C(O[C@H](/C=C/c1ccccc1)P1(=O)N(Cc2ccccc2)[C@H]2CCCC[C@@H]2N1Cc1ccccc1)c1ccccc1 | 4.56 µM (inactive) | 8.18 µM (inactive) | 2.79 µM (inactive) | 3.22 µM | 2.95 µM (inactive) | 3.21 µM (inactive) | 4.2 µM (inactive) | 3.41 µM (inactive) | 3.32 µM (inactive) | 3.51 µM (inactive) | 2.33 µM (inactive) | 3.51 µM (inactive) | 3.72 µM (inactive) | 1.49 µM (inactive) | 4.94 µM (inactive) | 3.69 µM (inactive) | 4.12 µM (inactive) | 3.72 µM (inactive) | 8.83 µM (inactive) | 3.15 µM (inactive)
c1cc2c(ncc3cscc32)s1 | > 100 µM (inactive) | > 100 µM (inactive) | > 31.6 µM (inactive) | > 100 µM | > 100 µM (inactive) | > 31.6 µM (inactive) | > 100 µM (inactive) | > 100 µM (inactive) | > 49.5 µM (inactive) | > 100 µM (inactive) | > 61.7 µM (inactive) | > 68.4 µM (inactive) | > 100 µM (inactive) | > 100 µM (inactive) | > 89.5 µM (inactive) | > 100 µM (inactive) | > 100 µM (inactive) | > 100 µM (inactive) | > 100 µM (inactive) | > 100 µM (inactive)
COC(=O)/C=C1/OC(c2ccccc2)=CC1=O | 17.9 µM (inactive) | 18.2 µM (inactive) | 15.9 µM (inactive) | 15.6 µM | 2.24 µM (inactive) | 16 µM (inactive) | 12 µM (inactive) | 16.7 µM (inactive) | 16.2 µM (inactive) | 11.7 µM (inactive) | 24.6 µM (inactive) | 17.6 µM (inactive) | 19.7 µM (inactive) | 16.4 µM (inactive) | 18.6 µM (inactive) | 15 µM (inactive) | 19.1 µM (inactive) | 20.3 µM (inactive) | 19.9 µM (inactive) | 19 µM (inactive)
COC(=O)[C@]12CC[C@H]3CN(C(=O)OCc4ccccc4)[C@H]([C@H]31)[C@H](c1ccccc1)N2 | 53.5 µM (inactive) | > 100 µM (inactive) | 65.3 µM (inactive) | 69.3 µM | 39.6 µM (inactive) | > 100 µM (inactive) | 58.1 µM (inactive) | 72.6 µM (inactive) | > 100 µM (inactive) | 67.6 µM (inactive) | 86.7 µM (inactive) | 77.4 µM (inactive) | > 100 µM (inactive) | 64.7 µM (inactive) | > 100 µM (inactive) | 78.9 µM (inactive) | > 100 µM (inactive) | > 100 µM (inactive) | > 100 µM (inactive) | > 100 µM (inactive)
CC1=NN(C(=O)CC(=O)Nc2cccc(C)c2)C(=O)C1/N=N/c1ccc(S(=O)(=O)CCOS(=O)(=O)O)cc1 (configuration not stated) | 32.2 µM (inactive) | 2.17 µM (inactive) | 0.373 µM (active) | 0.319 µM | 1.33 µM (inactive) | 0.63 µM (active) | 0.388 µM (active) | 2.51 µM (inactive) | 0.345 µM (active) | 0.746 µM (active) | 0.718 µM (active) | 0.76 µM (active) | 3.24 µM (inactive) | 9.42 µM (inactive) | 36.6 µM (inactive) | 0.486 µM (active) | 5.57 µM (inactive) | 2 µM (inactive) | 3.9 µM (inactive) | 0.471 µM (active)
CCOC(=O)C(Cl)(NC(=O)c1c(F)c(F)c(F)c(F)c1F)C(F)(F)F (configuration not stated) | 75.9 µM (inactive) | > 100 µM (inactive) | > 100 µM (inactive) | > 100 µM | 22.1 µM (inactive) | > 100 µM (inactive) | > 100 µM (inactive) | > 100 µM (inactive) | > 100 µM (inactive) | > 100 µM (inactive) | > 100 µM (inactive) | > 100 µM (inactive) |  | > 100 µM (inactive) | > 100 µM (inactive) | > 100 µM (inactive) | > 100 µM (inactive) | > 100 µM (inactive) | > 100 µM (inactive) | > 100 µM (inactive)
CC12Nc3c(Cl)cc(Cl)cc3N1C(=O)c1ccccc12 (configuration not stated) | 57 µM (inactive) | > 100 µM (inactive) | > 100 µM (inactive) | > 100 µM | 51.6 µM (inactive) | 92.3 µM (inactive) | > 10 µM (inactive) | > 100 µM (inactive) | 96.6 µM (inactive) | > 100 µM (inactive) | 68.7 µM (inactive) | > 100 µM (inactive) | 95.5 µM (inactive) | 90.2 µM (inactive) | > 100 µM (inactive) | > 100 µM (inactive) | > 100 µM (inactive) | > 100 µM (inactive) | > 100 µM (inactive) | > 100 µM (inactive)
CC#CCCCC1(C)CCNC1=S (configuration not stated) | > 10 µM (inactive) | > 10 µM (inactive) |  | > 10 µM | > 10 µM (inactive) |  | > 10 µM (inactive) | > 10 µM (inactive) | > 10 µM (inactive) | > 10 µM (inactive) | > 10 µM (inactive) | > 10 µM (inactive) | > 10 µM (inactive) | > 10 µM (inactive) | > 10 µM (inactive) | > 10 µM (inactive) | > 10 µM (inactive) | > 10 µM (inactive) |  | > 10 µM (inactive)
NNC(=S)N/N=C(\C(=O)Nc1cccc(O)c1)C1C(=O)NC(=S)NC1=O | > 100 µM (inactive) | > 100 µM (inactive) | > 100 µM (inactive) | > 100 µM | > 100 µM (inactive) | > 100 µM (inactive) | > 100 µM (inactive) | > 100 µM (inactive) | > 100 µM (inactive) | > 100 µM (inactive) | > 100 µM (inactive) |  | > 100 µM (inactive) | 36.3 µM (inactive) | > 100 µM (inactive) | > 100 µM (inactive) | > 100 µM (inactive) | > 100 µM (inactive) | > 100 µM (inactive) | > 100 µM (inactive)
O=c1c2ccccc2n2n1Cc1ccccc1C2 | 35.6 µM (inactive) | > 100 µM (inactive) | > 100 µM (inactive) | > 100 µM | > 100 µM (inactive) | > 100 µM (inactive) | > 100 µM (inactive) | > 100 µM (inactive) | > 100 µM (inactive) | > 100 µM (inactive) | > 100 µM (inactive) | > 100 µM (inactive) | > 100 µM (inactive) | > 100 µM (inactive) |  | > 100 µM (inactive) | > 100 µM (inactive) | > 100 µM (inactive) | > 100 µM (inactive) | > 100 µM (inactive)
